Molecular target: Serine/threonine-protein kinase SCH9 (Saccharomyces cerevisiae (strain ATCC 204508 / S288c)) (UniProt P11792)
Experiment: Sch9 T570 phosphorylation inhibition in yeast, SAR follow-up, mechanism study for yeast TOR pathway modulator project, cell-based, HA-Sch9, immunoblot (AID 504478)
Details: S. cerevisiae HA-Sch9, T570 phospho immunoblot, 30 min

Sequence of Serine/threonine-protein kinase SCH9 (Saccharomyces cerevisiae (strain ATCC 204508 / S288c)) (P11792 whole entry, looked up): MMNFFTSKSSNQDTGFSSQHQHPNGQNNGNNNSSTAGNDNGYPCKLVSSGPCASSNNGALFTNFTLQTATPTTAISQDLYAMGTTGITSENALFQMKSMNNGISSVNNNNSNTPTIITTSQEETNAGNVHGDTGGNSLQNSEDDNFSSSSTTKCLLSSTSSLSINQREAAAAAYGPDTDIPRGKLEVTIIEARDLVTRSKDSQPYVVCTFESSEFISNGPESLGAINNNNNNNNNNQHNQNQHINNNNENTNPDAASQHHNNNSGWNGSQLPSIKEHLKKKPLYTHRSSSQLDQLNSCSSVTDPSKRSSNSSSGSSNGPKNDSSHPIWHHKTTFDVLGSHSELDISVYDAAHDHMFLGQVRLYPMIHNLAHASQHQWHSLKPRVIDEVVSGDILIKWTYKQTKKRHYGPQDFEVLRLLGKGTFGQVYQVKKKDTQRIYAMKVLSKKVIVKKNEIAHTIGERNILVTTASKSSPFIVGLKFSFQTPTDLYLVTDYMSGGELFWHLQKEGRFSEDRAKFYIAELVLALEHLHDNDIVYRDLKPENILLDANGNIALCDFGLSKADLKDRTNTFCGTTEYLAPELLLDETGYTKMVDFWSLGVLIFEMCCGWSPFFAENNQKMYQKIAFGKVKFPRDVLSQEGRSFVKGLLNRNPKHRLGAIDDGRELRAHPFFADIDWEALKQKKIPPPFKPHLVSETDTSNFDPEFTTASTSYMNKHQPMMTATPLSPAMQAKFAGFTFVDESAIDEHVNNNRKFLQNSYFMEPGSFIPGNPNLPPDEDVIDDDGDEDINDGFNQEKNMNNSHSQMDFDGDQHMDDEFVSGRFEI

## CNc1nc(N)c([N+](=O)[O-])c(Nc2cccc(F)c2)n1
  IC50: 4.5 µM
